From patent US20260364184A1, “COMPOUND BASED ON OXOISOINDOLINYL-SUBSTITUTED TETRAHYDROPYRIMIDINE-DIONE AND USE THEREOF” (GLUETACS THERAPEUTICS (SHANGHAI) CO., LTD., priority 2023, published 2026) come the findings set out here.

The term inhibition denotes how much of the control response was suppressed.

Test [1] addresses T1, human Cereblon WT GST-tagged protein (CRBN) (Homo sapiens, UniProt Q96SW2).
T1 construct: purchased CISBIO 64BDCRBNPEH
Briefly: CRBN binding by HTRF (Cereblon binding kit). On the procedure: The CEREBLON BINDING kits (specification: 10,000 tests; product number: Catalog #64BDCRBNPEH; CISBIO company) was used to determine the CRBN binding ability of the compounds to be tested through a HTRF method (homogeneous time-resolved fluorescence). The specific methods are as follows: • 1. According to the instructions of the CEREBLON BINDING KITS, serial dilutions were performed for the test compounds of the present disclosure (including the compounds in Table 1, Table 2, and Examples 1-468) and for lenalidomide. Specifically, diluent #9 (1×) solution was used as the diluent, and multiple concentration gradients were set. The dilution operation can be performed according to one of the following two methods: • (1) The first dilution method: The test compounds of the present disclosure (including the compounds in Table 1, Table 2, and Examples 1-468) were subjected to 5-fold serial dilutions starting from a highest concentration of 40 μM, resulting in a total of 7 concentrations from high to low (40, 8, 1.6, 0.32, 0.064, 0.0128, 0.00256 μM). Subsequently, the diluted test compounds and corresponding detection reagents were added to each well of a 96-well plate, resulting in final test compound concentrations of 10, 2, 0.4, 0.08, 0.016, 0.0032, and 0.00064 μM, respectively. • (2) As an alternative, a second dilution method can be used: The test compounds of the present disclosure (including the compounds in Table 1, Table 2, and Examples 1-468) were subjected to 4-fold gradient dilutions starting from a highest concentration of 8 μM, resulting in 2 concentrations (8 μM, 2 μM). Into the 96-well plate, the diluted test compounds and corresponding detection reagents were added, resulting in final test compound concentrations of 2 μM and 0.5 μM, respectively. The experimental procedure is described below using the diluted 8 μM test compound and lenalidomide solutions as examples. • 2. 2.5 μL of the above 8 μM of the tested compounds and lenalidomide solution, as well as the same volume of diluent #9 (1×) solution (solvent control group, Std0) were added to each well of a 96-well plate, respectively. Then, 2.5 μL of human Cereblon WT GST-tagged protein solution was added to each well. Finally, 5 μL of the thoroughly mixed Thalidomide-Re reagent and GST Eu antibody working solution were added to each of the aforementioned wells. The final concentration of the tested compounds and lenalidomide in each well was 2 μM. • 3. The blank control wells were sequentially added with 2.5 μL of diluent #9 (1×) solution, 2.5 μL of PROTAC binding buffer, and 5 μL of thoroughly mixed Thalidomide-Re reagent and GST Eu antibody working solution. • 4. After sealing and incubating the solutions in the aforementioned wells at room temperature for 3 hours, the absorbance values at emission wavelengths of 620 nm and 665 nm were detected by the HTRF method using a Spark microplate reader (V3.1 SP1).
The corresponding CRBN binding inhibition rate was calculated using the following method:
Rcompound=OD 665 nmcompound/OD 620 nmcompound−OD 665 nmcontrol/OD 620 nmcontrol
RStd0=OD 665 nmStd0/OD 620 nmStd0−OD 665 nmcontrol/OD 620 nmcontrol inhibition rate (%)=(1−Rcompound/RStd0)*100
Note: OD 665 nmcompound is the absorbance value of each well of the compounds to be tested of the present disclosure at an emission wavelength of 665 nm. OD 620 nmcompound is the absorbance value of each well of the compounds to be tested of the present disclosure at an emission wavelength of 620 nm. OD 665 nmcontrol is the absorbance value of the blank control well at an emission wavelength of 665 nm. OD 620 nmcontrol is the absorbance value of the blank control well at an emission wavelength of 620 nm. OD 665 nmStd0 is the absorbance value of the solvent control well at an emission wavelength of 665 nm. OD 620 nmStd0 is the absorbance value of the solvent control well at an emission wavelength of 620 nm.
(TR-FRET usually uses a lanthanide donor and a delayed reading to cut background.)

In test [2] the test system is Human Acute T Lymphoblastic Leukemia Cells (Molt-4). Briefly: Inhibition of Molt-4 cell proliferation (CellTiter luminescent viability). Particulars: Homo sapiens, MOLT-4, 96 h, Table IA2, IRAK4 inhibitor-based, 96 hours; for inhibition at 0.01 µM: Molt-4, 10 nM, read-out: Inhibition Rate at 10 nM (%); for inhibition at 0.5 µM: Molt-4, 500 nM, read-out: Inhibition Rate at 500 nM (%). The format is cell-based. On the procedure: The tumor cells used herein were cultured in a cell culture medium listed in table 3 at 37 °C in an incubator with 5% CO2. Prior to experimentation, all cell lines used were correctly identified by STR profiling, and tested negative for mycoplasma contamination using a mycoplasma detection kit through routine screenings.
The IC50 values of the compounds of the present disclosure (including the compounds in Table 1, Table 2, and Examples 1-468) were determined using the CellTiter-Meiluncell Luminescent Cell Viability Assay Kit from Dalian Meilun Biotech Co., Ltd. The detailed procedure is as follows: Tumor cells were seeded in 96-well cell culture plates at the densities specified in Table 4. On the following day, the test compounds of the present disclosure were subjected to serial dilution. The dilution can be performed according to one of the following two methods: • (1) The first dilution method: The test compounds of the present disclosure (including the compounds in Table 1, Table 2, and Examples 1-468) were subjected to 5-fold serial dilutions starting from a highest concentration of 2000 μM, resulting in a total of 9 concentrations from high to low (2000, 400, 80, 16, 3.2, 0.64, 0.128, 0.0256, 0.00512 μM). Subsequently, 0.5 μL of the test compound dilution was transferred into the 96-well plate containing the cells, with each well containing 100 μL of cell culture medium. […] Into the 96-well plate, the diluted test compounds and corresponding detection reagents were added, resulting in final test compound concentrations of 500 nM and 10 nM, respectively. The experimental procedure is described below using the diluted 2 μM test compound as an example.
0.5 μL of the aforementioned diluted compound of the present disclosure (including the compounds in Table 1, Table 2, and Examples 1-468) was added to the seeded cells in 100 μL of medium, yielding a final test compound concentration of 10 nM. After the cells were treated with the compounds of the present disclosure for a specified period, the cell viability assay reagent was added to the culture medium according to the kit's instructions to determine cell viability. […] All controls were treated using the same procedure as the compounds of the present disclosure. The growth inhibition curves for the compounds of the present disclosure were plotted using Prism GraphPad software, and the IC50 values were calculated therefrom.

For another test, the target named is T2, IRAK4 (Homo sapiens, UniProt Q9NWZ3).
T2 construct: expression of target proteins in cells; endogenous in cells
T2 sequence (Q9NWZ3 1-460): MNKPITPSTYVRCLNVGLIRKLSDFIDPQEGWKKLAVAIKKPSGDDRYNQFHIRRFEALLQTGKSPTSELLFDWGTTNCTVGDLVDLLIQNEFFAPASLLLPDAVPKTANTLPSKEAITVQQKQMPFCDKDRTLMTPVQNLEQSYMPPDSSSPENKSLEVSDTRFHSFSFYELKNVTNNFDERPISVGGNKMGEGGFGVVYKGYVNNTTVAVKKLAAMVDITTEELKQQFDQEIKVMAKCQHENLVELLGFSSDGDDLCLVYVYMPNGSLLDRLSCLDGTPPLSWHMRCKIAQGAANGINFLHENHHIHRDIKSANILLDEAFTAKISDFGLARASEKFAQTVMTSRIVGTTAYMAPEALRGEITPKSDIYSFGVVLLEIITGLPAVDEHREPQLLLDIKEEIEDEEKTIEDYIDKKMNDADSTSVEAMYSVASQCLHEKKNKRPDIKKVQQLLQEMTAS
The test can be described thus: Western blot degradation of IRAK4. The format is cell-based. Particulars: hPBMC Cell; 24 hours. The procedure, abridged:
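Compound-treated cells harvested; lysates denatured 5 min at 95 °C, run on SDS-PAGE, blotted to NC membrane, blocked 1 h RT, probed with antibodies. Densitometry vs DMSO → DC50; target normalised to internal control → % remaining, degradation = 1 − remaining.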
A general note: In western blotting, separated proteins are transferred to a membrane and probed.

T1 sequence (Q96SW2 whole entry): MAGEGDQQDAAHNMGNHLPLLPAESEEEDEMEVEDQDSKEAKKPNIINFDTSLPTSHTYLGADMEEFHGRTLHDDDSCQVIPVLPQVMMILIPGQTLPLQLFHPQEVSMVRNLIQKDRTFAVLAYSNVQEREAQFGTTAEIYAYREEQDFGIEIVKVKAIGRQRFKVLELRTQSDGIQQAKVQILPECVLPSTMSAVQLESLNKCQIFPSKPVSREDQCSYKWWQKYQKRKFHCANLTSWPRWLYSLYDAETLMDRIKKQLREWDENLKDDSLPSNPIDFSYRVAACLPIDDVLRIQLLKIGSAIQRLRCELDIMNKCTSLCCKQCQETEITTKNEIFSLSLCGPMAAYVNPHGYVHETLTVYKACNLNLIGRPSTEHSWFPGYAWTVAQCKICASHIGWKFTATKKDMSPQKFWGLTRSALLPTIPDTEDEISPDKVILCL

As to `CN(C)C(=O)c1cc2cnc(Nc3ccc(N4CCC(CN5CC6CC(C5)N6c5ccc6c(c5)C(=O)N(N5CCC(=O)NC5=O)C6=O)CC4)cn3)nc2n1C1CCCC1` [GT-05201, 7-cyclopentyl-2-((5-(4-((6-(2-(2,4-dioxotetrahydropyrimidin-1(2H)-yl)-1,3-dioxoisoindolin-5-yl)-3,6-diazabicyclo[3.1.1]heptan-3-yl)methyl)piperidin-1-yl)pyridin-2-yl)amino)-N,N-dimethyl-7H-pyrrolo[2,3-d]pyrimidine-6-carboxamide], the “Inhibition Rate at 0.5 μM (%)” value in test [1] (0.5 μM) was “a3 (30% < a3 ≤ 40%)”. Besides, in test [1] (2 μM), the “Inhibition Rate at 2 μM (%)” value is given as “a5 (53% < a5 ≤ 60%)”.
As to `CN(Cc1ccc(-c2[nH]c3cc(F)cc4c3c2CCNC4=O)cc1)Cc1ccc2c(c1)CN(N1CCC(=O)NC1=O)C2=O` [GT-08403, 1-(5-(((4-(8-fluoro-1-oxo-2,3,4,6-tetrahydro-1H-azepino[5,4,3-cd]indol-5-yl)benzyl)(methyl)amino)methyl)-1-oxoisoindolin-2-yl)dihydropyrimidine-2,4(1H,3H)-dione], in test [1] (0.5 μM, read-out: Inhibition Rate at 0.5 μM (%)), the inhibition at 0.5 µM was in the range of 20 to 30%. Moreover, the inhibition at 2 µM in test [1] (2 μM, read-out: Inhibition Rate at 2 μM (%)) was in the range of 53 to 60%.
As to `COc1cc2nn([C@H]3CC[C@H](CN4C[C@@H]5C[C@H]4CN5c4ccc5c(c4)C(=O)N(N4CCC(=O)NC4=O)C5=O)CC3)cc2cc1NC(=O)c1cccc(C(F)(F)F)n1` [GT-08648, N-(2-((1S,4r)-4-(((1S,4S)-5-(2-(2,4-dioxotetrahydropyrimidin-1(2H)-yl)-1,3-dioxoisoindolin-5-yl)-2,5-diazabicyclo[2.2.1]heptan-2-yl)methyl)cyclohexyl)-6-methoxy-2H-indazol-5-yl)-6-(trifluoromethyl) picolinamide], in test [2], the inhibition at 0.01 µM is 15 to 20% and the inhibition at 0.5 µM lay in the range of 15 to 20%. The “Degradation of substrate protein IRAK4 (substrate protein remaining %)” value (from here on “Degradation … (substrate protein remaining %)”) on IRAK4 was “A (0%≤substrate protein remaining %≤80%)”.
As to `COc1cc2nn([C@H]3CC[C@H](CN4C[C@H]5C[C@@H]4CN5c4ccc5c(c4)C(=O)N(N4CCC(=O)NC4=O)C5=O)CC3)cc2cc1NC(=O)c1cccc(C(F)(F)F)n1` [GT-08650, N-(2-((1R,4r)-4-(((1R,4R)-5-(2-(2,4-dioxotetrahydropyrimidin-1(2H)-yl)-1,3-dioxoisoindolin-5-yl)-2,5-diazabicyclo[2.2.1]heptan-2-yl)methyl)cyclohexyl)-6-methoxy-2H-indazol-5-yl)-6-(trifluoromethyl) picolinamide], in test [2], the inhibition at 0.01 µM fell in the range of 20 to 40% and the inhibition at 0.5 µM is 15 to 20%. Moreover, the “Degradation … (substrate protein remaining %)” value on IRAK4 is “A (0%≤substrate protein remaining %≤80%)”.
`COc1cc2nn([C@H]3CC[C@H](CN4CCN(c5cc6c(cc5F)C(=O)N(N5CCC(=O)NC5=O)C6=O)CC4)CC3)cc2cc1NC(=O)c1cccc(C(F)(F)F)n1` [GT-08651, N-(2-((1r,4r)-4-((4-(2-(2,4-dioxotetrahydropyrimidin-1(2H)-yl)-6-fluoro-1,3-dioxoisoindolin-5-yl)piperazin-1-yl)methyl)cyclohexyl)-6-methoxy-2H-indazol-5-yl)-6-(trifluoromethyl) picolinamide]: in test [2], the inhibition at 0.01 µM lay in the range of 15 to 20% and the inhibition at 0.5 µM lay within 10 to 15%. In addition, the “Degradation … (substrate protein remaining %)” value at IRAK4 is “A (0%≤substrate protein remaining %≤80%)”.
`COc1cc2nn([C@H]3CC[C@H](CN4CC5CCC(C4)N5c4ccc5c(c4)C(=O)N(N4CCC(=O)NC4=O)C5=O)CC3)cc2cc1NC(=O)c1cccc(C(F)(F)F)n1` [GT-08652, N-(2-((1r,4r)-4-((8-(2-(2,4-dioxotetrahydropyrimidin-1(2H)-yl)-1,3-dioxoisoindolin-5-yl)-3,8-diazabicyclo[3.2.1]octan-3-yl)methyl)cyclohexyl)-6-methoxy-2H-indazol-5-yl)-6-(trifluoromethyl) picolinamide]: in test [2], the inhibition at 0.01 µM lay in the range of 15 to 20% and the inhibition at 0.5 µM was in the range of 15 to 20%. On IRAK4, the “Degradation … (substrate protein remaining %)” value is “A (0%≤substrate protein remaining %≤80%)”.
`COc1cc2nn([C@H]3CC[C@H](CN4CCN(c5cc6c(cc5F)C(=O)N(N5CCC(=O)NC5=O)C6=O)CC4)CC3)cc2cc1NC(=O)c1cccc(C(F)(F)F)c1` [GT-08664, N-(2-((1r,4r)-4-((4-(2-(2,4-dioxotetrahydropyrimidin-1(2H)-yl)-6-fluoro-1,3-dioxoisoindolin-5-yl)piperazin-1-yl)methyl)cyclohexyl)-6-methoxy-2H-indazol-5-yl)-3-(trifluoromethyl)benzamide]: in test [2], the inhibition at 0.01 µM was 20 to 40% and the inhibition at 0.5 µM was 15 to 20%. The “Degradation … (substrate protein remaining %)” value at IRAK4 is given as “A (0%≤substrate protein remaining %≤80%)”.
